The source of these data is patent publication US12466821B2 (Novartis AG, priority 2018, dated 2025).

Experiment [1] deals with human CMV DNA polymerase UL54 (Human cytomegalovirus (strain AD169) (HHV-5) (Human herpesvirus 5), UniProt P08546). Briefly: CMV polymerase biochemical assay (molecular beacon-based). As for the experimental part:
(§1) Both human CMV DNA polymerase UL54 and human HSV DNA polymerase UL30 were produced as N-terminal MBP fusion of the full length, wild type recombinant proteins in order to enhance soluble expression in insect cell expression system. The proteins were expressed in sf9 insect cells via baculovirus transduction and cells were harvested after 48 hours. The soluble proteins were purified using the standard Ni-IMAC purification strategy via the N-terminal hexa-Histidine tag, followed by heparin affinity chromatography. Both of the final MBP fusion proteins were more than 90% pure and the yield of UL54 was up to 1.8 mg per liter culture while UL30 was up to 15 mg per liter culture. All purification steps were performed on ice, with buffers chilled on ice and FPLC fraction collectors set at 6° C. […] UL30 protein was stored in buffer containing 20 mM HEPES, pH7.0, 420 mM NaCl, 20% glycerol, 6 mM Imidazole, and 0.8 mM DTT at−80° C.
(§2) DNA polymerase activity was measured using a molecular beacon-based assay, as described in Ma et. al.
(§3) 100 pM CMV polymerase or 625 pM HSV polymerase was added to a buffer containing 20 mM Tris, pH=7.5, 100 mM NaCl, 10 mM MgCl2, 0.01% Tween-20, 0.5 mM EDTA, 10% Sucrose and 1 mM DTT. The inhibitor was pre-incubated with the polymerase for 30 minutes at room temperature. Reactions were initiated by the addition of a mixture containing 1.25 uM dATP, 1.25 uM dCTP, 1.25 uM dTTP, 1.25 uM dGTP, 200 nM Primer B (5′-GAC GGG AAG-3′5′-GAC GGG AAG-3′) and 100 nM molecular beacon (5′-5,6-FAM-CCTCTCCGTGTCTTGTACTTCCCGTCAGAGAGG-BHQ1-3′). For human CMV polymerase the reactions were incubated for 60 minutes at room temperature. For HSV polymerase the reactions were incubated for 20 minutes at room temperature. The reactions were then read on a Perkin-Elmer EnVision 2101 reader (fluorescence) using an excitation of 480 nm and emission of 535 nm. 1050s were determined using an internal Novartis software (Helios).
as §3, with “nm.” for “nm. 1050s were determined using an internal Novartis software (Helios).”

Experiment [2] concerns the target human HSV DNA polymerase UL30 (Human herpesvirus 1 (strain 17) (HHV-1) (Human herpes simplex virus 1), UniProt P04293). Briefly: HSV polymerase biochemical assay (molecular beacon-based). As for the experimental part:
as §1, §2, §3
as §3, with “nm.” for “nm. 1050s were determined using an internal Novartis software (Helios).”

The subject of experiment [3] is Luciferase-encoding HCMV, AD169 strain. Briefly: CMV Luciferase assay (cellular herpesvirus replication). The note with it: Human betaherpesvirus 5, AD169, read-out: CMV-Luc Cellular EC50. It is filed as cell-based. How it is done: For all viral assays, 10 mM DMSO stock compound solutions were serially diluted in DMSO at 3.16 fold dilutions in 96-well clear round bottom plates. Compounds were then diluted in assay media at 1:20 and subsequently 10 μL of these dilutions were added to cells for final compound concentrations ranging either from 0.0159 μM to 50 μM in 0.5% DMSO/assay media, or from 0.00318 to 10 μM in 0.5% DMSO/assay media.
The assay uses a Luciferase-encoding HCMV. Luciferase is expressed under the control of a late viral gene (pp28) promoter in the AD169 strain, so that expression of the reporter is dependent on viral DNA replication. Compounds that affect any stage from viral entry to DNA replication result in a change in luciferase levels.
Viral replication in the presence or absence of compounds was measured by luciferase activity according to the following procedure: Neo-natal normal human dermal fibroblast cells (NN-NHDF, from ATCC cat #201-010) were seeded at 9,000 cells/well in 96-well white solid bottom plate at 80 uL/well in assay media: 2% FBS, 4 mM GlutaMax® (Invitrogen cat #35050) in DMEM/high glucose/no glutamine/no phenol red media (Invitrogen cat #31053). After 2 hrs at 37° C., 10 uL of compound diluted in assay media or 5% DMSO (final 0.5% DMSO/well) was added and the plates returned to 37° C. One hour later, 10 uL of virus diluted in assay media was added at a final Multiplicity of infection (MOI) of 1. Plates were incubated at 37° C. for 72 hrs. At 72 hours post-infection (hpi), plates were equilibrated to room temperature. After 25 min, 100 uL Renilla-Glo® Luciferase Assay Reagent (Promega cat # E2750) was added to each well and incubated for 10 min. Plates were covered to protect from light. Luminescence was measured on the PHERAstar FS®.
The following controls were included in the data analysis: No virus, no compound (0.5% DMSO)=IC (maximal inhibitory control); Virus, no compound (0.5% DMSO)=NC (neutral control). Data were analyzed using an internal Novartis software (Helios). The means of the controls (NC, IC) were used to normalize the results to a % scale using the formula: % Control=100−(100*(Sample value−NC)/(IC−NC)).
For each compound, the software derived an EC50 using a 4-parameter logistical model.

The IC50 is the midpoint of a concentration-inhibition curve. Low values mean inhibition by little substance, high ones a need for much substance. As usually defined, the EC50 is the midpoint of the concentration-response curve. In the case of `O=C(NCc1ccc(Cl)cc1)c1cc(Br)c2n(c1=O)CCN(CCN1CCCS1(=O)=O)C2=O` [Example 124, 9-bromo-N-(4-chlorobenzyl)-2-(2-(1,1-dioxidoisothiazolidin-2-yl)ethyl)-1,6-dioxo-1,3,4,6-tetrahydro-2H-pyrido[1,2-a]pyrazine-7-carboxamide], the IC50 was found to be 0.0831 µM in experiment [1] and 0.31 µM in experiment [2]. Moreover, the EC50 in experiment [3] amounted to 0.874 µM.
`CN(CCN1CCn2c(c(C(F)F)cc(C(=O)NCc3ccc(Cl)cc3)c2=O)C1=O)S(C)(=O)=O` [Example 143, N-(4-chlorobenzyl)-9-(difluoromethyl)-2-(2-(N-methylmethylsulfonamido)ethyl)-1,6-dioxo-1,3,4,6-tetrahydro-2H-pyrido[1,2-a]pyrazine-7-carboxamide]: the half-inhibitory concentration (IC50) in experiment [1] is 0.649 µM; in experiment [2] it was 6.31 µM. Moreover, the EC50 in experiment [3] was determined as 30.6 µM.
In the case of `CN(C1(CN2CCn3c(c(F)cc(C(=O)NCc4ccc(Cl)cc4)c3=O)C2=O)CC1)S(C)(=O)=O` [Example 166], the figures for the IC50 in experiment [1] and in experiment [2] were 0.173 µM and 7.7 µM, respectively. Besides, in experiment [3], the EC50 is 10 µM.
Consider `CN1CC(S(=O)(=O)C2(CN3CCn4c(ccc(C(=O)NCc5ccc(C#N)c(F)c5)c4=O)C3=O)CC2)C1` [Example 17, N-(4-cyano-3-fluorobenzyl)-2-((1-((1-methylazetidin-3-yl)sulfonyl)cyclopropyl)methyl)-1,6-dioxo-2,3,4,6-tetrahydro-1H-pyrido[1,2-a]pyrazine-7-carboxamide], for which the IC50 in experiment [1] worked out at 0.0147 µM; in experiment [2], 0.38 µM. In addition, the EC50 in experiment [3] turned out to be 0.905 µM.
For `CC(C)(c1ncno1)S(=O)(=O)C1(CN2CCn3c(ccc(C(=O)NCc4ccc(Cl)cc4)c3=O)C2=O)CC1` [Example 178, 2-((1-((2-(1,2,4-oxadiazol-5-yl)propan-2-yl)sulfonyl)cyclopropyl)methyl)-N-(4-chlorobenzyl)-1,6-dioxo-1,3,4,6-tetrahydro-2H-pyrido[1,2-a]pyrazine-7-carboxamide], the half-inhibitory concentration (IC50) in experiment [1] turned out to be 0.0003 µM; in experiment [2], 0.01 µM. For the same molecule, the EC50 in experiment [3] was determined as 0.0434 µM.
As for `CC(C)(C)NS(=O)(=O)C1(CN2CCn3c(ccc(C(=O)NCc4ccc(C#N)cc4)c3=O)C2=O)CC1` [Example 73-1], the IC50 came out at 0.0015 µM in experiment [1] and 0.0469 µM in experiment [2]. Also, in experiment [3], the concentration giving a half-maximal response (EC50) amounted to 0.0937 µM.
For `C[S@@+]([O-])C1(CN2CCn3c(ccc(C(=O)NCc4ccc(Cl)cc4)c3=O)C2=O)CC1` (single isomer, unassigned) [Example 67-2, N-(4-chlorobenzyl)-2-((1-(methylsulfinyl)cyclopropyl)methyl)-1,6-dioxo-2,3,4,6-tetrahydro-1H-pyrido[1,2-a]pyrazine-7-carboxamide], the figures for the IC50 in experiment [1] and in experiment [2] were 0.0358 µM and 1.12 µM, respectively. In experiment [3], the EC50 was 0.478 µM.
Consider `CN1CCC(S(=O)(=O)C2(CN3CCn4c(ccc(C(=O)NCc5ccc(Cl)cc5)c4=O)C3=O)CC2)C1` (centres unmarked) [Example 80-2, N-(4-chlorobenzyl)-2-((1-((1-methylpyrrolidin-3-yl)sulfonyl)cyclopropyl)methyl)-1,6-dioxo-2,3,4,6-tetrahydro-1H-pyrido[1,2-a]pyrazine-7-carboxamide], for which the half-inhibitory concentration (IC50) in experiment [1] is 0.0097 µM; in experiment [2] it was 0.177 µM. The EC50 in experiment [3] came to 0.247 µM.
Turning to `N#Cc1ccc(CNC(=O)c2ccc3n(c2=O)CCN(CCS(=O)(=O)C2CC2)C3=O)cc1` [Example 194], the 50% inhibitory concentration (IC50) in experiment [1] was found to be 0.103 µM; in experiment [2], 0.855 µM. Also, in experiment [3], the EC50 turned out to be 4.22 µM.
`CC(CN1CCn2c(ccc(C(=O)NCc3ccc(Cl)cc3)c2=O)C1=O)S(=O)(=O)C1CC1` (centres unmarked) [Example 191]: the IC50 in experiment [1] was 0.0765 µM; in experiment [2] it was 5.46 µM. The EC50 in experiment [3] was 3.46 µM.
Take `CC(CCO)S(=O)(=O)C1(CN2CCn3c(ccc(C(=O)NCc4ccc(Cl)cc4)c3=O)C2=O)CC1` (centres unmarked) [Example 4, N-(4-chlorobenzyl)-2-((1-((4-hydroxybutan-2-yl)sulfonyl)cyclopropyl)methyl)-1,6-dioxo-2,3,4,6-tetrahydro-1H-pyrido[1,2-a]pyrazine-7-carboxamide]: the half-inhibitory concentration (IC50) in experiment [1] was determined as 0.0004 µM. Further, the half-maximal effective concentration (EC50) in experiment [3] came out at 0.0404 µM.
As for `CS(=O)(=O)CCCN1CCn2c(c(CF)cc(C(=O)NCc3ccc(Cl)cc3)c2=O)C1=O` [Example 142], the results for the IC50 in experiment [1] and in experiment [2] were 0.351 µM and 2.16 µM, respectively.
`CN(CCN1CCn2c(c(Br)cc(C(=O)NCc3ccc(Cl)cc3)c2=O)C1=O)S(C)(=O)=O` [Example 122, 9-bromo-N-(4-chlorobenzyl)-2-(2-(N-methylmethylsulfonamido)ethyl)-1,6-dioxo-1,3,4,6-tetrahydro-2H-pyrido[1,2-a]pyrazine-7-carboxamide]: the IC50 came out at 0.35 µM in experiment [1] and 5.05 µM in experiment [2].
For `COC1(S(=O)(=O)C2(CN3CCn4c(ccc(C(=O)NCc5ccc(Cl)cc5)c4=O)C3=O)CC2)CC1` [Example 188], in experiment [1], the concentration for half-maximal inhibition (IC50) was 0.0008 µM. Moreover, in experiment [3], the EC50 amounted to 0.0116 µM.
`CCN1CCn2c(ccc(C(=O)NCc3ccc(Cl)cc3)c2=O)C1=O` [Example 113, N-(4-chlorobenzyl)-2-ethyl-1,6-dioxo-2,3,4,6-tetrahydro-1H-pyrido[1,2-a]pyrazine-7-carboxamide]: the IC50 came out at 3.13 µM in experiment [1] and 23.6 µM in experiment [2].
As for `CN1CCn2c(ccc(C(=O)NCc3ccc(Cl)cc3)c2=O)C1=O` [Example 114, N-(4-chlorobenzyl)-2-methyl-1,6-dioxo-2,3,4,6-tetrahydro-1H-pyrido[1,2-a]pyrazine-7-carboxamide], the values for the IC50 in experiment [1] and in experiment [2] were 3.99 µM and 25 µM, respectively.
Turning to `CS(=O)(=O)CCCN1CCn2c(c(Br)cc(C(=O)NCc3ccc(Cl)cc3)c2=O)C1=O` [Example 123, 9-bromo-N-(4-chlorobenzyl)-2-(3-(methylsulfonyl)propyl)-1,6-dioxo-1,3,4,6-tetrahydro-2H-pyrido[1,2-a]pyrazine-7-carboxamide], the values for the IC50 in experiment [1] and in experiment [2] were 0.373 µM and 1.89 µM, respectively.
